Assays:
[1] = target: T1, M-phase inducer phosphatase 3 (Homo sapiens, UniProt P30307); assay: In vitro inhibitory activity against human Cell division cycle 25 degree C
T1 sequence (P30307 whole entry): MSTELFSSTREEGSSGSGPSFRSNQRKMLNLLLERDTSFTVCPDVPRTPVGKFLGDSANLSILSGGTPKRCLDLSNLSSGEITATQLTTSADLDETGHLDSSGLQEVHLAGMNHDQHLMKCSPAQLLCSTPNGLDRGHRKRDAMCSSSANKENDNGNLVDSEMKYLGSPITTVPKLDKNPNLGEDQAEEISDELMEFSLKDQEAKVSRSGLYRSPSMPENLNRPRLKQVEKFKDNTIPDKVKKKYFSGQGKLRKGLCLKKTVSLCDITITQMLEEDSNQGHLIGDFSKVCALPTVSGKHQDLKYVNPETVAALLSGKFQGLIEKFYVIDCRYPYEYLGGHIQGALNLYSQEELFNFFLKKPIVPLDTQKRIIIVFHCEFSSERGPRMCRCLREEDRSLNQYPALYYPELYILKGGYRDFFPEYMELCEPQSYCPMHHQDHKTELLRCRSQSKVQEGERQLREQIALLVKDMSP

[2] = target: T2, M-phase inducer phosphatase 2 (Homo sapiens, UniProt P30305); assay: In vitro inhibitory activity against human Cell division cycle 25B
T2 sequence (P30305 whole entry): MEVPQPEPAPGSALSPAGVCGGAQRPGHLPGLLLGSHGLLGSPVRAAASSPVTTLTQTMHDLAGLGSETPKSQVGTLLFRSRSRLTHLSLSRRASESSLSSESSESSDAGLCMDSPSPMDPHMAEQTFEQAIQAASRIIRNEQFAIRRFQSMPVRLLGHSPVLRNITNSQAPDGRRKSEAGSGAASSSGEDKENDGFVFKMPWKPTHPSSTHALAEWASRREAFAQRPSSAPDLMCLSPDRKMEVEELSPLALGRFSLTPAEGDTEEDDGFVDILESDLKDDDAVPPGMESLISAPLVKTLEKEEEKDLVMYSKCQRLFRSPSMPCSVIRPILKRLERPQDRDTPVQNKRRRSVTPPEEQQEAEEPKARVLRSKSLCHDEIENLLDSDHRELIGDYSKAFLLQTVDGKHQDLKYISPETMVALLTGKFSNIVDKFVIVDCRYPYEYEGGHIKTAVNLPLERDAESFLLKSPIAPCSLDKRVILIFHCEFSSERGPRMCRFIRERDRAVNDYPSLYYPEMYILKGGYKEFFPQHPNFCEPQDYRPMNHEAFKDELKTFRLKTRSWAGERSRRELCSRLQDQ

IC50 [1]: > 2 mM
IC50 [2]: > 2 mM
SMILES: C=C(C)CCC[C@@]1(C)CCC[C@@]2(C)C1=CC[C@H](C)[C@]2(C)C[C@@H](O)C1=CC(=O)O[C@@H]1O (stereo in doubt; form 2)

Reference: ChEMBL document CHEMBL1132102, “Dysidiolide and related gamma-hydroxy butenolide compounds as inhibitors of the protein tyrosine phosphatase, CDC25” (Bioorg Med Chem Lett, 1999)
